Laboratory results published in patent US7414042B2, “Method and composition for selectively inhibiting melanoma” (The Board of Trustees of The University of Illinois, priority 1995, dated 2008).
Values after ≈ are worked out from the molar mass of the structure shown. Read-outs that look alike come from different tables or passages of the source.

How the values were obtained:
[1] = system: human melanoma and nonmelanoma cancer cell lines
Experimental: (§2) In the following Table 1, the extracted betulinic acid and the other pure compounds were tested for cycotoxity against the following cultured human cell lines: A431 (squamous cells), BC-1 (breast), COL-2 (colon), HT-1080 (sarcoma), KB (human oral epidermoid carcinoma), LNCaP (prostate), LU-1 (lung), MEL-2 (melanoma), U373 (glioma) and ZR-75-1 (breast).
(§3) Cytotoxicity of the crude extracts and purified compounds was determined in a number of cultured human cancer cell lines. The cells were cultured in appropriate media and under standard conditions. To maintain logarithmic growth, the media were changed 24 hours prior to cytotoxic assays. On the day of the assay, the cells were harvested by trypsinization, counted, diluted in media, and added to 96-well plates containing test compounds dissolved in DMSO; the final DMSO concentration was 0.05%.
(§4) The plates were incubated for three days. Following the incubation period, the cells were fixed and stained with sulforhodamine B (SRB) dye. The bound dye was liberated with Tris base, and the OD515 was measured on an ELISA reader. The growth of the betulinic acid-treated cells was determined by the OD515 values, and the growth was compared to the OD515 values of DMSO-treated control cells. Dose response studies were performed to generate ED50 values.
(§5) The biological evaluation of the derivatives focused on the activity against human melanoma cell lines. In particular, the following betulinic acid derivatives were prepared and tested for cytotoxicity profile against human melanoma cell lines and against a number of selected nonmelanoma cell lines.

MEL-2 (melanoma) = experiment: Cytotoxicity against cultured human melanoma cells (SRB); assay type: cell-based; conditions: three days incubation, SRB, Table 1 and text; for IC50: Homo sapiens, MEL2, 72 h, read-out: ED50 MEL-2
Experimental: (§1) The plates were incubated for three days. […] Dose response studies were performed to generate ED50 values.

COL-2 (colon) = experiment: Cytotoxicity against cultured human cancer cells (SRB); assay type: cell-based; conditions: three days incubation, SRB; for IC50: Homo sapiens, Col2, 72 h, read-out: ED50 COL-2
Experimental: as §1

ZR-75-1 (breast) = experiment: as above; assay type: cell-based; conditions: three days incubation, SRB; for IC50: Homo sapiens, ZR-75-1, 72 h, read-out: ED50 ZR 75-1
Experimental: as §1

U373 (glioma) = experiment: as above; assay type: cell-based; conditions: three days incubation, SRB; for IC50: Homo sapiens, U373 MG, 72 h, read-out: ED50 U373
Experimental: as §1

A431 (squamous cells) = experiment: as above; assay type: cell-based; conditions: three days incubation, SRB; for IC50: Homo sapiens, A-431, 72 h, read-out: ED50 A431
Experimental: as §1

[2] = system: KB (human oral epidermoid carcinoma); experiment: as above; assay type: cell-based; conditions: three days incubation, SRB, Table 1; for IC50: Homo sapiens, 72 h, read-out: ED50 KB
Experimental: as §1

LU-1 (lung) = experiment: as above; assay type: cell-based; conditions: three days incubation; for IC50: Homo sapiens, 72 h, read-out: ED50 LU-1
Experimental: as §1

BC-1 (breast) = experiment: as above; assay type: cell-based; conditions: three days incubation, SRB; for IC50: Homo sapiens, 72 h, read-out: ED50 BC-1
Experimental: as §1

HT-1080 (sarcoma) = experiment: as above; assay type: cell-based; conditions: three days incubation; for IC50: Homo sapiens, HT-1080, 72 h, read-out: ED50 HT-1080
Experimental: as §1

LNCaP (prostate) = experiment: as above; assay type: cell-based; conditions: three days incubation, SRB; for IC50: Homo sapiens, LNCaP, 72 h, read-out: ED50 LNCaP
Experimental: as §1

[3] = system: human melanoma and nonmelanoma cancer cell lines; experiment: Cytotoxicity profile across the panel of human cancer cell lines; conditions: Table 1 panel
Experimental: as §2, §3, §4, §5

SMILES | IC50 (MEL-2 (melanoma)) [µg/mL] | IC50 (COL-2 (colon)) [µg/mL] | IC50 (ZR-75-1 (breast)) [µg/mL] | IC50 (U373 (glioma)) [µg/mL] | IC50 (A431 (squamous cells)) [µg/mL] | IC50 [2] [µg/mL] | IC50 (LU-1 (lung)) [µg/mL] | IC50 (BC-1 (breast)) [µg/mL] | IC50 (HT-1080 (sarcoma)) [µg/mL] | IC50 (LNCaP (prostate)) [µg/mL] | cytotoxic activity profile, cell-type selectivity [3] | also measured
Cc1c2ccncc2c(C)c2c1[nH]c1ccccc12 [Ellipticine] | 0.9 (≈ 3.65 µM) | 0.3 (≈ 1.22 µM) | 0.9 (≈ 3.65 µM) | 1.6 (≈ 6.5 µM) | 0.5 (≈ 2.03 µM) | 0.04 (≈ 0.162 µM) | 0.02 (≈ 0.0812 µM) | 0.2 (≈ 0.812 µM) | 1.8 (≈ 7.31 µM) | 0.8 (≈ 3.25 µM) | – | cytotoxic activity profile, cell-type selectivity [1]: relatively intense, nonselective cytotoxic activity
CO[C@H](C(=O)[C@@H](O)[C@@H](C)O)[C@@H]1Cc2cc3cc(O[C@H]4C[C@@H](O[C@H]5C[C@@H](O)[C@H](O)[C@@H](C)O5)[C@H](O)[C@@H](C)O4)c(C)c(O)c3c(O)c2C(=O)[C@H]1O[C@H]1C[C@@H](O[C@H]2C[C@@H](O[C@H]3C[C@](C)(O)[C@H](O)[C@@H](C)O3)[C@@H](O)[C@@H](C)O2)[C@H](O)[C@@H](C)O1 [Mithramycin A] | – | – | – | – | – | – | – | – | – | – | relatively intense, nonselective cytotoxic activity | ED50 MEL-2 (MEL-2 (melanoma)): 1.2 µg/mL (≈ 1.11 µM); ED50 COL-2 (COL-2 (colon)): 0.06 µg/mL (≈ 0.0553 µM); ED50 ZR 75-1 (ZR-75-1 (breast)): 0.2 µg/mL (≈ 0.184 µM); ED50 U373 (U373 (glioma)): 0.04 µg/mL (≈ 0.0369 µM); ED50 A431 (A431 (squamous cells)): 0.09 µg/mL (≈ 0.0829 µM); ED50 KB [2]: 0.09 µg/mL (≈ 0.0829 µM); ED50 LU-1 (LU-1 (lung)): 0.2 µg/mL (≈ 0.184 µM); ED50 BC-1 (BC-1 (breast)): 0.3 µg/mL (≈ 0.276 µM); ED50 HT-1080 (HT-1080 (sarcoma)): 1.5 µg/mL (≈ 1.38 µM); ED50 LNCaP (LNCaP (prostate)): 0.05 µg/mL (≈ 0.0461 µM)
CC[C@]1(O)C[C@@H]2CN(CCc3c([nH]c4ccccc34)[C@@](C(=O)OC)(c3cc4c(cc3OC)N(C)[C@H]3[C@@](O)(C(=O)OC)[C@H](OC(C)=O)[C@]5(CC)C=CCN6CC[C@]43[C@@H]65)C2)C1 [Vinbiastine, vinblastine] | 0.01 (≈ 0.0123 µM) | 0.01 (≈ 0.0123 µM) | 0.3 (≈ 0.37 µM) | 1.1 (≈ 1.36 µM) | 0.05 (≈ 0.0617 µM) | 0.04 (≈ 0.0493 µM) | 0.02 (≈ 0.0247 µM) | 0.06 (≈ 0.074 µM) | 0.02 (≈ 0.0247 µM) | 0.1 (≈ 0.123 µM) | relatively intense, nonselective cytotoxic activity | –
